# Entries after “also recorded” stand apart in the source; their conditions may differ. Read-outs that look alike come from different tables or passages of the source.
# Legend:
# 11β-HSD1 Reductase = 11β-HSD1 Reductase (Rattus norvegicus, UniProt P16232); test: 11β-HSD1 reductase assay in rat Leydig cell homogenates;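 further: rat Leydig cell homogenate incubated 20 min at 37 °C, pH 7.4, with tritiated 11-dehydro-corticosterone and 3 mM NADPH, product measured by HPLC, inhibition from triplicate dose–response curves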
# Description: (§2) Each enzyme reaction (described below) was stopped by adding 750 μL MeOH. After centrifugation, an aliquot of supernatant was analyzed by HPLC using a DuPont Zorbax C8 column.
# (§3) 11β-HSD1 dehydrogenase was assayed by incubating homogenates (13,000 cells equivalent) with 600 nM [^3H]-B (0.5 μCi) in the presence of 3 mM NADP, 50 mM Tris-HCl; pH 8.4 at 37° C. for 10 minutes in a total volume of 250 μL. 11β-HSD1 reductase was assayed by incubating homogenates (52,000 cells equivalent) with 600 nM [^3H]-11-dehydro-corticosterone in presence of 3 mM NADPH, 50 mM Tris-HCl; pH 7.4 at 37° C. for 20 minutes in a total volume of 250 μL.
# (§4) Each concentration was tested in triplicate and the dose response curve, showing percentage inhibition versus log concentration of steroid was plotted. The data fitted a log-linear straight line.
# 11β-HSD2 [1] = target: T1, 11β-HSD2 (Homo sapiens, UniProt P80365); details: Monder et al., 1993; Pearson Murphy et al., 1981; cited from earlier work
# T1 sequence (P80365 1-405): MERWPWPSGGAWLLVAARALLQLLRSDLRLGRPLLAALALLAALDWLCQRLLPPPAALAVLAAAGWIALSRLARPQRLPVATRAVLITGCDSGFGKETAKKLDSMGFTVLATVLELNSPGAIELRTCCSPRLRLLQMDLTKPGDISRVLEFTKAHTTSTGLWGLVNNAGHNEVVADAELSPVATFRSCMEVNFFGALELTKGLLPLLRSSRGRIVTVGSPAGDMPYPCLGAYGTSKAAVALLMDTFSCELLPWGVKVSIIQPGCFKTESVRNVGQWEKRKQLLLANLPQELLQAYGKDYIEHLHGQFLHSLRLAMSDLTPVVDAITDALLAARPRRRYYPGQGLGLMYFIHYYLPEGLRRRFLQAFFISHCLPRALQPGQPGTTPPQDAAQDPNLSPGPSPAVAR
# 11β-HSD1 Dehydrogenase = 11β-HSD1 Dehydrogenase (Rattus norvegicus, UniProt P16232); test: 11β-HSD1 dehydrogenase assay in rat Leydig cell homogenates; format: biochemical; set-up: Freshly prepared rat Leydig cell homogenates were chosen since they provide a rich and reliable source of both 11β-HSD1 dehydrogenase and reductase; from tissue; host or cells: rat testicular Leydig cells, homogenate;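 further: tritiated corticosterone conversion by 11β-HSD1 dehydrogenase in Leydig homogenates with 3 mM NADP at pH 8.4, 37 °C for 10 min, products resolved by HPLC, inhibition relative to uninhibited enzyme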
# Description: as §2, §3, §4
# 11β-HSD1 = 11β-HSD1 (Homo sapiens, UniProt P28845); details: Monder et al., 1993; Pearson Murphy et al., 1981; cited from earlier work
# 11β-HSD2 [2] = target: T2, 11β-HSD2 (Ovis aries, UniProt P50168); test: 11β-HSD2 enzyme activity in sheep kidney microsomes; format: biochemical
# T2 construct: incubating sheep kidney microsomal fraction (6.5 μg protein) with 50 nM corticosterone; from tissue; host or cells: sheep kidney microsomal fraction
# T2 sequence (P50168 1-427): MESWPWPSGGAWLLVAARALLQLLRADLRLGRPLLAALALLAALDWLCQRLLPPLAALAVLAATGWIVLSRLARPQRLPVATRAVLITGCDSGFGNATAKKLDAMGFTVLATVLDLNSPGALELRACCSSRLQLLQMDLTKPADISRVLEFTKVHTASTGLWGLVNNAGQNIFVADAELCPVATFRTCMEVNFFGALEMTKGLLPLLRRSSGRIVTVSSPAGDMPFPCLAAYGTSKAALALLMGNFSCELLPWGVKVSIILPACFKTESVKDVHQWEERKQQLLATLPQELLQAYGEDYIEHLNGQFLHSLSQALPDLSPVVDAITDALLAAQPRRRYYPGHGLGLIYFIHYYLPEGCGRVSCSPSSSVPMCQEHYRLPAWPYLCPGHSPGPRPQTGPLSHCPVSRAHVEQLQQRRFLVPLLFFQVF
# Text: The enzymatic reaction was termninated by addition of methanol and synthesis of 11-dehydro-corticosterone was quantitated by HPLC as described above.
# rat aortic rings [3] = test: Contractile response of rat aortic rings to phenylephrine; format: cell-based; details: 24 h; for effect on the ability of 11-dehydro-corticosterone to amplify the contractile response to phenylephrine: 11-dehydro-corticosterone 100 nmol/L, antisense 3 μmol/L vs nonsense; for contractile response to phenylephrine of rings incubated with corticosterone and antisense: corticosterone 10 nmol/L + antisense 3 μmol/L, compared with nonsense oligomers
# Description: Male Sprague-Dawley (150-200 g) rats were anesthetized with pentobarbital (50 mg/kg IP), and a median sternotomy was performed followed by the rapid removal of the thoracic aorta. The adventitia was removed, but the endothelium was left intact. The aorta was cut into 2-3 mm rings and individual rings were placed into a single well of a twenty four well culture plate and incubated at 37° C. under 95% 02-5% CO2. Each well contained 1 mL of DMEM/F12 containing 1% fetal bovine serum, streptomycin (100 μg/ml), penicillin (100 units/ml) and amphotericin (0.25 μg/ml). Aortic rings were incubated for 24 hours prior to contractility measurements with the following combinations of steroids, and antisense/nonsense oligonucleotides (3 μmol/L):
# Antisense phosphorothioate oligonucleotides, targeted to block either 11β-HSD2 or 11β-HSD1 gene expression, were obtained from Research Genetics, Huntsville Ala. Antisense oligomers complementary to 20 bp sequences spanning the ribosome binding/translation start site were used. Oligomer sequences were: 5′-CATAACTGCCGTCCAACAGC-3′ (SEQ ID NO. 1) for 11β-HSD1 Antisense and 5′-AGGCCAGCGCTCCATGACTT-3′ (SEQ ID NO 2) for 11β-HSD2 antisense. In control experiments the corresponding sense sequence was used as the nonsense oligomer. Antisense and nonsense oligomers were added directly to each well at 20 μg/10:1 sterile H2O per well for a final concentration of 3 μmol/L.
# For contraction measurements, aortic rings were suspended by tungsten wires with 1 g of tension and placed in a vessel bath containing serum free DMEM/F12 media at 37° C. aerated with 95% O2-5% CO2, at pH 7.4. Vessels were equilibrated for 20 minutes and then tested with phenylephrine (1 nmol/L-10 μmol/L). Although phenylephrine is structurally not a catecholamine, it is considered to be a functional catecholamine as it activates both a and P adrenoceptors. Due to its favorable stability characteristics, it is widely used as a catecholamine substitute in experiments of this nature. The intensity of contraction was assessed by use of a Narishige micromanipulator and model FT03 force transducer (Grass Instrument Co. West Warwick, R.I.). Measurements were recorded on computer using the Labview 4.1 Virtual Instrument System (National Instruments, Austin, Tex.).
# [4] = target: T3, 11β-HSD1-reductase activity (Rattus norvegicus, UniProt P16232); test: Metabolism of 3H-11-dehydrocorticosterone back to corticosterone by aortic rings; format: cell-based; details: 24 hours, compared with nonsense oligomers
# T3 construct: from tissue; host or cells: rat aortic rings (intact tissue, 24 h incubation)
# Description: (§1) The effects of 11β-HSD1 and 11β-HSD2 antisense on the inter-conversion of ^3H-corticosterone and ^3H-11-dehydro-corticosterone by aortic rings was also determined. Rings (2-3 mm) obtained in a similar manner as those in the contraction studies, were incubated in 1 ml DMEM/F12 media containing 1% FBS at 37° C. under 95% O2-5% CO2 in 24-well culture plates. Rings were incubated for 24 hours with:
# (ii) ^3H-11β-dehydro-corticosterone (10 nmol/L)±11β-HSD1 antisense (3 μmol/L); this experiment was performed in duplicate (n=10 aortic rings per well). Control groups were incubated with the appropriate nonsense oligomer. ^3H-corticosterone in the incubation medium after 24 hrs was then measured. In this experiment, aortic rings were also analyzed for ^3H-corticosterone content. Rings from duplicate incubations (total n=20) were blotted dry, pooled and homogenized in 50% methanol using a Polytron. The homogenates were then centrifuged, extracted as below using Sep-Paks and injected onto a HPLC system for analysis.
# Incubation media was collected, ran through a Sep-Pak and eluted with 3 mls of methanol, the eluate was then dried under nitrogen and reconstituted in 500:1 methanol. The aortic rings were dried and weighed. […] Steroids were observed by monitoring radioactivity on-line with a Packard Radiomatic Flo-One/Beta Series A-500 counter connected to a Dell Optiflex 425 S/L computer. […]
# [5] = tested on: cultured rat vascular endothelial and smooth muscle cells; test: RT-PCR analysis of 11β-HSD isoform expression in cultured cells; format: cell-based; details: similar protocol
# Text: Since 11β-HSD2 appears to exist only in endothelial cells, this observation supports a role for the action of glucocorticoids in affecting endothelial cell function. […] Further experiments to determine whether antisense oligomers down-regulate mRNA and protein expression of their respective 11β-HSD isoform under conditions in which they enhance contractile responses in aortic rings will be done.
# rat aortic rings [6] = test: Conversion of 3H-corticosterone to 11-dehydrocorticosterone by aortic rings; format: cell-based; details: 3H-corticosterone 10 nM, antisense 3 μM, 24 hrs, compared with nonsense oligomers
# Description: as §1
# (i) ^3H-corticosterone (10 nmol/L)±11β-HSD2 or 11β-HSD1 antisense (3 μmol/L); control groups received nonsense oligomers. The amount of ^3H-11-dehydro-corticqsterone in the incubation medium after 24 hrs was then measured. The effects of 11β-HSD1 antisense/nonsense were measured in quadruplicate (n=6 aortic rings per well) and the effects of 11β-HSD2 antisense/nonsense in duplicate (n=8 aortic rings per well),
# Incubation media was collected, ran through a Sep-Pak and eluted with 3 mls of methanol, the eluate was then dried under nitrogen and reconstituted in 500:1 methanol. The aortic rings were dried and weighed. The steroids present in the eluate were separated by high-pressure liquid chromatography with a Dupont Zorbax C8 column eluted at 44° C. at a flow rate of 1 mL/min using 55% methanol for 10 minutes. Steroids were observed by monitoring radioactivity on-line with a Packard Radiomatic Flo-One/Beta Series A-500 counter connected to a Dell Optiflex 425 S/L computer. […]
# normotensive SD rats = details: infused into normotensive SD rats; cited from earlier work
# [7] = listed as 11β-HSD1 antisense oligomers
# Sequence of 11β-HSD1 Dehydrogenase (P16232 whole entry): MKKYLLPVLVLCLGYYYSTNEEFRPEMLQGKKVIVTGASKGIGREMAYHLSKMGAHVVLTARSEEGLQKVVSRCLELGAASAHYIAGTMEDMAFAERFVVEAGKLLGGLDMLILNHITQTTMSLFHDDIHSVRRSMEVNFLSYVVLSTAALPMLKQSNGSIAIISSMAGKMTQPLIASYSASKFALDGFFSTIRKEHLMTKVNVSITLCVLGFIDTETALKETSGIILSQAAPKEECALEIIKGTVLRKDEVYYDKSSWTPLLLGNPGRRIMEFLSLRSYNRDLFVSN
# T3 sequence (P16232 whole entry): as above
# Sequence of 11β-HSD1 Reductase (P16232 whole entry): as above
# Sequence of 11β-HSD1 (P28845 whole entry, species assumed): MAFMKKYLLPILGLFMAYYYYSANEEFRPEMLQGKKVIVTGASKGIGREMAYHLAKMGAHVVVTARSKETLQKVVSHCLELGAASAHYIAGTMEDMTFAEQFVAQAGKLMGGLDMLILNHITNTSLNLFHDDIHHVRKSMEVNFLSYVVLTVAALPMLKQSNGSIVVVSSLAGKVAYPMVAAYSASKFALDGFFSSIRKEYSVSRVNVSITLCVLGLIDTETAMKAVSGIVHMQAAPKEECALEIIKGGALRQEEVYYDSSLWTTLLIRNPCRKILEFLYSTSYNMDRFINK
molecule,measurement,setting,value
"C[C@]12CCC(=O)C=C1CC[C@@H]1[C@@H]2[C@@H](O)C[C@]2(C)C(=O)CC[C@@H]12 [11β-OH-Androstenedione, 4-Androsten-11β-ol-3,17-dione]",IC50,11β-HSD1 Reductase,> 100 µM
same,inhibition of 11β-HSD2 isoform,11β-HSD2 [1],poor inhibitor
same,IC50,11β-HSD1 Dehydrogenase,> 100000 nM
same,Leydig Cell 11β-HSDl Dehydrogenase [S] = 600 nM,"11β-HSD1 Dehydrogenase; rat Leydig cell homogenates, 600 nM corticosterone, progesterone and androgen derivatives",inactive
same,inhibition of 11β-HSD1 isoform,11β-HSD1,poor inhibitor
same,IC50,11β-HSD2 [2],7.8 µM
same,Sheep kidney 11β-HSD2 [S] = 50 nM,"11β-HSD2 [2]; sheep kidney microsomes, corticosterone substrate, progesterone and androgen derivatives",weak inhibitor
"5′-CATAACTGCCGTCCAACAGC-3′ (antisense CATAACTGCCGTCCAACAGC; all phosphorothioate, sugars by position and methylation of C not given here) [11β-HSD1 antisense]",effect on the ability of 11-dehydro-corticosterone to amplify the contractile response to phenylephrine,rat aortic rings [3],significantly attenuated
same,effect on the ability of 11-dehydro-corticosterone to amplify the contractile response to phenylephrine,rat aortic rings [3]; listed as 11β-HSD1 antisense oligomer,attenuates
same,effect on the ability of 11-dehydro-corticosterone to amplify the contractile response to phenylephrine,rat aortic rings [3]; [7],attenuated
same,contractile response to phenylephrine of rings incubated with corticosterone and antisense,rat aortic rings [3],significantly increased
same,contractile response to phenylephrine of rings incubated with corticosterone and antisense,rat aortic rings [3]; [7],enhanced the ability of corticosterone to amplify the contractile response
same,production of 3H-corticosterone from 3H-11-dehydrocorticosterone,[4],significantly reduce; also recorded: markedly reduced; also recorded: marked decrease
same,expression of the respective 11β-HSD enzyme isoform,[5],down-regulate the expression
same,reduction in the conversion of corticosterone to 11-dehydrocorticosterone,rat aortic rings [6],21%
"5′-AGGCCAGCGCTCCATGACTT-3′ (antisense AGGCCAGCGCTCCATGACTT; all phosphorothioate, sugars by position and methylation of C not given here) [11β-HSD2 antisense]",contractile response to phenylephrine of rings incubated with corticosterone and antisense,rat aortic rings [3],statistically significant increase; also recorded: significantly (P<0.05) increased
same,expression of the respective 11β-HSD enzyme isoform,[5],down-regulate the expression
same,reduction in the conversion of corticosterone to 11-dehydrocorticosterone,rat aortic rings [6],24%
"CC(=O)[C@H]1CC[C@H]2[C@@H]3CC[C@H]4C[C@H](O)CC[C@]4(C)[C@H]3[C@@H](O)C[C@]12C [11β-OH-allopregnanolone, 5α-Pregnan-3α,11β-diol-2O-one]",blood pressure,normotensive SD rats,increased BP
same,IC50,"11β-HSD1 Reductase; read-out: Leydig Cell 11β-HSD1 Reductase [S] = 600 nM, rat Leydig cell homogenates, 600 nM 11-dehydro-corticosterone, progesterone and androgen derivatives",> 100 µM
same,IC50,"11β-HSD1 Dehydrogenase; rat Leydig cell homogenates, 600 nM corticosterone, progesterone and androgen derivatives, read-out: Leydig Cell 11β-HSDl Dehydrogenase [S] = 600 nM",3000 nM
same,inhibitors of 11β-HSD1 dehydrogenase (summary in words),11β-HSD1 Dehydrogenase; summary of the screening,potent inhibitors; also recorded: high potency
same,IC50,"11β-HSD2 [2]; sheep kidney microsomes, corticosterone substrate, progesterone and androgen derivatives, read-out: Sheep kidney 11β-HSD2 [S] = 50 nM",0.12 µM
same,inhibitors of 11β-HSD2 (summary in words),11β-HSD2 [2]; summary of the screening,potent inhibitors; also recorded: high potency

# Source: patent publication US20070093460A1, “Methods of using selective 11beta-HSD inhibitors to treat gluocorticoid associated states” (priority 2005, published 2007)
